Results published in US9023789B2, “Amylin analogs and pharmaceutical compositions thereof” (Novo Nordisk A/S, priority 2012, dated 2015).
Where two headings read alike, the source gives them in different places. Numbered stars: 1 amine (or outer) side, 2 acyl side, 3 side chain; on linkers, the order of the positions; unused ones are H or OH. Bridge positions count the residues as written; N and C are the ends. Side chains are listed from the residue outwards. Peptide text beside a SMILES is read from it. * marks the point of attachment. C20 diacid = O=C(O)CCCCCCCCCCCCCCCCCCC(=O)*; γGlu = O=C(O)[C@H](CCC(=O)[*:2])N[*:1]

What was measured:
[1] = biological target: T1, human calcitonin (a) receptor in BHK570 cells (Homo sapiens, UniProt P30988); test: ASSAY (II)a functional assay, human calcitonin receptor (CRE luciferase); type: cell-based; settings: read-out: hCTR funct. EC50
T1 construct: expressed in transfected cells
T1 sequence (P30988 25-474): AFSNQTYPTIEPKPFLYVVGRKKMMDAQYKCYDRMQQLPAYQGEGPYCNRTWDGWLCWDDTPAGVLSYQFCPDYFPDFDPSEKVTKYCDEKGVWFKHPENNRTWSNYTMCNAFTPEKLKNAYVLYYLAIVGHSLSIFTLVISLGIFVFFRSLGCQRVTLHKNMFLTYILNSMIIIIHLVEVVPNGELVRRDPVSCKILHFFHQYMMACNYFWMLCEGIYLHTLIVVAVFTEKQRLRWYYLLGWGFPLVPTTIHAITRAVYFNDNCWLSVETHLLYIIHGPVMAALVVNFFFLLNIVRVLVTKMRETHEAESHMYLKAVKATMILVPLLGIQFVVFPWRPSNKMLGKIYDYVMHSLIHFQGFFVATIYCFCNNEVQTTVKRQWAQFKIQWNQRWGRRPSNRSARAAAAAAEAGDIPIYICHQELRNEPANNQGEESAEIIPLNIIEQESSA
Outline: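 Ligand exposure 3 h at 37 °C, 5% CO2 in DMEM with 10% FBS, 10 mM Hepes pH 7.4. cAMP-driven luciferase read by luminescence after 30 min LucLite at room temperature.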

[2] = ASSAY (IV) determination of solubility; type: physicochemical
Outline: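 Dissolve polypeptide in water ([…] stock); combine 1:1 with each 100 mM buffer (glycylglycine pH 3.0/4.0/5.0; bistrispropane pH 6.0/6.5/7.0/7.5/8.0); hold 18 hours at room temperature; centrifuge; quantify polypeptide by UPLC.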

[3] = biological target: T2, human calcitonin receptor (Homo sapiens, UniProt P30988); test: ASSAY (VII) binding to the human calcitonin receptor (SPA, 125I-Calcitonin); settings: read-out: hCTR bind IC50;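 note: cell membranes (35 ng/µL) combined with SPA beads in 40 µL of pH 7.4 Hepes buffer, 384-well format, signal counted on a TopCounter instrument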
T2 construct: expressed in transfected cells
T2 sequence (P30988 25-474): T1 sequence (P30988 25-474)

[4] = bistrispropane buffer, pH 6.5, read-out: Solubility pH 6.5 Concentration
[5] = bistrispropane buffer, pH 7.5, read-out: Solubility pH 7.5 Concentration
[6] = bistrispropane buffer, pH 6.0, read-out: Solubility pH 6.0 Concentration
[7] = bistrispropane buffer, pH 7.0, read-out: Solubility pH 7.0 Concentration
[8] = bistrispropane buffer, pH 8.0, read-out: Solubility pH 8.0 Concentration
[9] = glycylglycine buffer, pH 3.0, read-out: Solubility pH 3.0 Concentration
[10] = glycylglycine buffer, pH 4.0, read-out: Solubility pH 4.0 Concentration
[11] = glycylglycine buffer, pH 5.0, read-out: Solubility pH 5.0 Concentration

Row | EC50 [1] [nM] | solubility at 18 h [2, 4] [µM] | solubility at 18 h [2, 5] [µM] | solubility at 18 h [2, 6] [µM] | solubility at 18 h [2, 7] [µM] | solubility at 18 h [2, 8] [µM] | solubility at 18 h [2, 9] [µM] | solubility at 18 h [2, 10] [µM] | solubility at 18 h [2, 11] [µM] | IC50 [3] [nM] | SMILES
1 | 0.087 | ≥ 200 | ≥ 200 | ≥ 200 | ≥ 200 | ≥ 200 | ≥ 200 | ≥ 200 | ≥ 200 | 0.038 | CC[C@H](C)[C@H](NC(=O)[C@H](C)NC(=O)CNC(=O)[C@H](Cc1ccccc1)NC(=O)[C@H](CC(N)=O)NC(=O)[C@@H]1CCCN1C(=O)[C@H](CO)NC(=O)[C@H](CO)NC(=O)[C@H](Cc1c[nH]cn1)NC(=O)[C@H](CCCNC(=N)N)NC(=O)[C@H](CC(C)C)NC(=O)[C@H](Cc1ccccc1)NC(=O)[C@H](CCC(=O)O)NC(=O)[C@H](C)NC(=O)[C@H](CC(C)C)NC(=O)[C@H](CCCNC(=N)N)NC(=O)[C@H](CCC(N)=O)NC(=O)[C@@H](NC(=O)[C@H](C)NC(=O)[C@@H]1CSSC[C@H](NC(=O)[C@H](CCCCN)NC(=O)CC[C@H](NC(=O)CCCCCCCCCCCCCCCCCCC(=O)O)C(=O)O)C(=O)N[C@@H](CC(N)=O)C(=O)N[C@@H]([C@@H](C)O)C(=O)N[C@@H](C)C(=O)N[C@@H]([C@@H](C)O)C(=O)N1)[C@@H](C)O)C(=O)N1CCC[C@H]1C(=O)N[C@@H](CO)C(=O)N[C@@H](CO)C(=O)N[C@H](C(=O)N[C@@H](CC(N)=O)C(=O)N[C@H](C(=O)NCC(=O)N[C@@H](CO)C(=O)N[C@@H](CC(N)=O)C(=O)N[C@H](C(=O)N1CCC[C@H]1C(N)=O)[C@@H](C)O)C(C)C)[C@@H](C)O [Example 8] ({C20 diacid-γGlu}-KCNTATCATQRLAEFLRHSSPNFGAIPSSTNVGSNTP-NH2; disulfide 2-7)
2 | 0.112 | ≥ 200 | ≥ 200 | ≥ 200 | ≥ 200 | ≥ 200 | ≥ 200 | ≥ 200 | ≥ 200 | 0.101 | CC[C@H](C)[C@H](NC(=O)[C@H](C)NC(=O)CNC(=O)[C@H](Cc1ccccc1)NC(=O)[C@H](CC(N)=O)NC(=O)[C@@H]1CCCN1C(=O)[C@H](CO)NC(=O)[C@H](CO)NC(=O)[C@H](Cc1c[nH]cn1)NC(=O)[C@H](CCCNC(=N)N)NC(=O)[C@H](CC(C)C)NC(=O)[C@H](Cc1ccccc1)NC(=O)[C@H](CCC(=O)O)NC(=O)[C@H](C)NC(=O)[C@H](CC(C)C)NC(=O)[C@H](CCCNC(=N)N)NC(=O)[C@H](CCC(N)=O)NC(=O)[C@@H](NC(=O)[C@H](C)NC(=O)[C@@H]1CSSC[C@H](NC(=O)[C@H](CCCCN)NC(=O)CC[C@H](NC(=O)CCCCCCCCCCCCCCCCCCC(=O)O)C(=O)O)C(=O)N[C@@H](CC(N)=O)C(=O)N[C@@H]([C@@H](C)O)C(=O)N[C@@H](C)C(=O)N[C@@H]([C@@H](C)O)C(=O)N1)[C@@H](C)O)C(=O)N1CCC[C@H]1C(=O)N[C@@H](CO)C(=O)N[C@@H](CO)C(=O)N[C@H](C(=O)N[C@@H](CC(N)=O)C(=O)N[C@H](C(=O)NCC(=O)N[C@@H](CO)C(=O)N[C@@H](CC(=O)O)C(=O)N[C@H](C(=O)N1CCC[C@H]1C(N)=O)[C@@H](C)O)C(C)C)[C@@H](C)O [Example 11] ({C20 diacid-γGlu}-KCNTATCATQRLAEFLRHSSPNFGAIPSSTNVGSDTP-NH2; disulfide 2-7 (inferred))
3 |  | ≥ 200 | ≥ 200 | ≥ 200 | ≥ 200 | ≥ 200 | ≥ 200 | ≥ 200 | ≥ 200 |  | CC[C@H](C)[C@H](NC(=O)[C@H](C)NC(=O)CNC(=O)[C@H](Cc1ccccc1)NC(=O)[C@H](CC(N)=O)NC(=O)[C@@H]1CCCN1C(=O)[C@H](CO)NC(=O)[C@H](CO)NC(=O)[C@H](Cc1c[nH]cn1)NC(=O)[C@H](CCCNC(=N)N)NC(=O)[C@H](CC(C)C)NC(=O)[C@H](Cc1ccccc1)NC(=O)[C@H](CCC(=O)O)NC(=O)[C@H](C)NC(=O)[C@H](CC(C)C)NC(=O)[C@H](CCCNC(=N)N)NC(=O)[C@H](CCC(N)=O)NC(=O)[C@@H](NC(=O)[C@H](C)NC(=O)[C@@H]1CSSC[C@H](NC(=O)[C@@H](N)CCCCNC(=O)CC[C@H](NC(=O)CCCCCCCCCCCCCCCCCCC(=O)O)C(=O)O)C(=O)N[C@@H](CC(N)=O)C(=O)N[C@@H]([C@@H](C)O)C(=O)N[C@@H](C)C(=O)N[C@@H]([C@@H](C)O)C(=O)N1)[C@@H](C)O)C(=O)N1CCC[C@H]1C(=O)N[C@@H](CO)C(=O)N[C@@H](CO)C(=O)N[C@H](C(=O)N[C@@H](CC(N)=O)C(=O)N[C@H](C(=O)NCC(=O)N[C@@H](CO)C(=O)N[C@@H](Cc1c[nH]cn1)C(=O)N[C@H](C(=O)N[C@@H](Cc1ccc(O)cc1)C(N)=O)[C@@H](C)O)C(C)C)[C@@H](C)O [Example 128] (H-K([γGlu-C20 diacid])CNTATCATQRLAEFLRHSSPNFGAIPSSTNVGSHTY-NH2; disulfide 2-7 (inferred); N-terminus assumed)
4 |  | ≥ 200 | ≥ 200 | ≥ 200 | ≥ 200 | ≥ 200 | ≥ 200 | ≥ 200 | ≥ 200 |  | CC[C@H](C)[C@H](NC(=O)[C@H](C)NC(=O)CNC(=O)[C@H](Cc1ccccc1)NC(=O)[C@H](CC(N)=O)NC(=O)[C@@H]1CCCN1C(=O)[C@H](CO)NC(=O)[C@H](CO)NC(=O)[C@H](Cc1c[nH]cn1)NC(=O)[C@H](CCCNC(=N)N)NC(=O)[C@H](CC(C)C)NC(=O)[C@H](Cc1ccccc1)NC(=O)[C@H](CC(=O)O)NC(=O)[C@H](C)NC(=O)[C@H](CC(C)C)NC(=O)[C@H](CCCNC(=N)N)NC(=O)[C@H](CCC(N)=O)NC(=O)[C@@H](NC(=O)[C@H](C)NC(=O)[C@@H]1CSSC[C@H](NC(=O)[C@@H](N)CCCCNC(=O)CC[C@H](NC(=O)CC[C@H](NC(=O)CCCCCCCCCCCCCCCCCCC(=O)O)C(=O)O)C(=O)O)C(=O)N[C@@H](CC(N)=O)C(=O)N[C@@H]([C@@H](C)O)C(=O)N[C@@H](C)C(=O)N[C@@H]([C@@H](C)O)C(=O)N1)[C@@H](C)O)C(=O)N1CCC[C@H]1C(=O)N[C@@H](CO)C(=O)N[C@@H](CO)C(=O)N[C@H](C(=O)N[C@@H](CC(N)=O)C(=O)N[C@H](C(=O)NCC(=O)N1CCC[C@H]1C(=O)N[C@@H](CCCNC(=N)N)C(=O)N[C@H](C(=O)N[C@@H](Cc1ccc(O)cc1)C(N)=O)[C@@H](C)O)C(C)C)[C@@H](C)O [Example 130] (H-K([γGlu-γGlu-C20 diacid])CNTATCATQRLADFLRHSSPNFGAIPSSTNVGPRTY-NH2; disulfide 2-7 (inferred); N-terminus assumed)

Row | SMILES | EC50 [1] [nM] | solubility at 18 h [2, 4] [µM] | solubility at 18 h [2, 5] [µM] | solubility at 18 h [2, 6] [µM] | solubility at 18 h [2, 7] [µM] | solubility at 18 h [2, 8] [µM] | solubility at 18 h [2, 9] [µM] | solubility at 18 h [2, 10] [µM] | solubility at 18 h [2, 11] [µM] | IC50 [3] [nM]
5 | CC[C@H](C)[C@H](NC(=O)[C@H](C)NC(=O)CNC(=O)[C@H](Cc1ccccc1)NC(=O)[C@H](CC(N)=O)NC(=O)[C@@H]1CCCN1C(=O)[C@H](CO)NC(=O)[C@H](CO)NC(=O)[C@H](Cc1c[nH]cn1)NC(=O)[C@H](CCCNC(=N)N)NC(=O)[C@H](CC(C)C)NC(=O)[C@H](Cc1ccccc1)NC(=O)[C@H](CC(=O)O)NC(=O)[C@H](C)NC(=O)[C@H](CC(C)C)NC(=O)[C@H](CCCNC(=N)N)NC(=O)[C@H](CCC(N)=O)NC(=O)[C@@H](NC(=O)[C@H](C)NC(=O)[C@@H]1CSSC[C@H](NC(=O)[C@H](CCCCN)NC(=O)CC[C@H](NC(=O)CCCCCCCCCCCCCCCCCCC(=O)O)C(=O)O)C(=O)N[C@@H](CC(N)=O)C(=O)N[C@@H]([C@@H](C)O)C(=O)N[C@@H](C)C(=O)N[C@@H]([C@@H](C)O)C(=O)N1)[C@@H](C)O)C(=O)N1CCC[C@H]1C(=O)N[C@@H](CO)C(=O)N[C@@H](CO)C(=O)N[C@H](C(=O)N[C@@H](CC(N)=O)C(=O)N[C@H](C(=O)NCC(=O)N[C@@H](CO)C(=O)N[C@@H](CC(N)=O)C(=O)N[C@H](C(=O)N1CCC[C@H]1C(N)=O)[C@@H](C)O)C(C)C)[C@@H](C)O [Example 10] ({C20 diacid-γGlu}-KCNTATCATQRLADFLRHSSPNFGAIPSSTNVGSNTP-NH2; disulfide 2-7 (inferred)) | 0.07 | ≥ 200 | ≥ 200 | ≥ 200 | ≥ 200 | ≥ 200 | ≥ 200 | ≥ 200 | ≥ 200 | 0.099
